According to patent US20220313670A1, “Methods Of Treating Fabry Disease In Patients Having Renal Impairment” (Amicus Therapeutics, Inc., priority 2019, published 2022):
“And” between values parts separate entries of the source, which are not always exact repeats. Equal values may be shown once. Read-outs that look alike come from different tables or passages of the source.

Legend:
Format in all cases: in vivo, human
[1] = Phase 1 single-dose pharmacokinetics and safety study of migalastat HCl in non-Fabry subjects with renal impairment (Example 1, AT1001-015); details: for AUC0-∞: individual subjects, in ng·h/mL; for concentration at 96 h: read-out: C96 h, Mean; for Comparison to Example 1 Moderate Impairment (migalastat concentration): non-Fabry subjects with moderate renal impairment, in ng/mL (unit assumed); for Comparison to Example 1 Severe Impairment (migalastat concentration): non-Fabry subjects with severe renal impairment, (coefficient of variation)
Method: The eGFR estimated by the Cockcroft-Gault equation per the FDA Guidance for renal impairment studies.
Volunteers were enrolled into two cohorts stratified for renal function calculated using the Cockcroft-Gault equation for creatinine clearance (CLcr). Subjects were assigned to groups based on an estimated CLcr at screening as calculated using the Cockcroft-Gault equation.
Subjects were grouped according to degree of renal dysfunction: mild (CLcr ≥60 and <90 mL/min), moderate (CLcr ≥30 and <60 mL/min), or severe (CLcr ≥15 and <30 mL/min)

[2] = Plasma migalastat concentration in two Fabry patients with renal impairment (P1, P2; Example 3); details: for concentration at 0 h: human, plasma, Fabry patient P1 (moderate renal impairment), Pre-dose (0 h)
Method: Migalastat levels can be measured via methods known in the art. […] Microcentrifuge tubes containing 100 μl of the tissue homogenate or 50 μl of plasma may then be spiked with 500 ng/mL 13C d2-AT1001 HCl internal standard (manufactured by MDS Pharma Services). A 600 μl volume of 5 mM HCl in 95/5 MeOH:H2O can then be added and the tubes vortexed for 2 minutes, followed by centrifugation at 21000×g for 10 minutes at room temperature. The supernatants may then be collected into a clean, 96-well plate, diluted with 5 mM HCl in dH2O and applied to a 96-well solid phase extraction (SPE) plate (Waters Corp., Milford Mass.). […] The liquid chromatography can be conducted using an ACN:water:formate binary mobile phase system (mobile phase A: 5 mM ammonium formate, 0.5% formic acid in 95:5 ACN:water; mobile phase B: 5 mM ammonium formate, 0.5% formic acid in 5:47.5:47.5 ACN:MeOH:water) with a flow rate of 0.7 mL/minute on an Halo HILIC column (150×4.6 mm, 2.7 μm) (Advanced Materials Technology, Inc.). MS/MS analysis may be carried out under APCi positive ion mode. The same procedure may be followed for migalastat determination in plasma except without homogenization. […] A 12-point calibration curve and quality control samples may be prepared. […] To derive approximate molar concentrations, one gram of tissue may be estimated as one mL of volume.
Thus, two Fabry patients with renal impairment were evaluated. One patient (P1) had moderate renal impairment, while the other patient (P2) had severe renal impairment. […] The comparison with the results from the FACETS study allows for comparison of PK in the Fabry population with mostly normal, but some mild and a few moderately impaired Fabry patients. None had severe renal impairment because these patients were excluded from the study.

lyso-Gb3 = test: Plasma lyso-Gb3 in Fabry patients on migalastat
From the text: In further embodiments, the method further comprises measuring lyso-Gb3 in one or more plasma samples from the patient. A first baseline lyso-Gb3 level may be determined during the first time period. As used herein, “baseline lyso-Gb3 level” refers to the lowest plasma lyso-Gb3 value measured during a given time period or dosing regimen. […] Thus, in further embodiments, the administration of the second time period is begun after an increase (e.g., of at least about 20, 25, 30, 33, 35, 40, 45 or 50% and/or 1, 1.25, 1.5, 1.75, 2, 2.25, 2.5 or 3 nM) above the first baseline lyso-Gb3 level is measured. […] Lyso-Gb3 levels may be measured at varying frequencies (e.g., about once every 2, 3, 4 or 5 months). It is thought that it takes about 3 months for a baseline lyso-Gb3 level to be established once a dosing regimen has been started.
Lyso-Gb3 can be measured via methods known in the art using validated assays. […] For example, one process of measuring plasma lyso-Gb3 is described in Hamler, Rick, et al. “Accurate quantitation of plasma globotriaosylsphingosine (lyso-Gb3) in normal individuals and Fabry disease patients by liquid chromatography—tandem mass spectrometry (LC—MS/MS).” Molecular Genetics and Metabolism, Volume 114.2 (2015):S51. In one or more embodiments, lyso-Gb3 is measured in samples from a patient's urine.

[3] = AT1001-015, Mild (CLcr ≥60-<90 mL/min), N 8
[4] = AT1001-015, Moderate (CLcr ≥30-<60 mL/min), N 8
[5] = AT1001-015, Normal (CLcr ≥90 mL/min), N 8
[6] = AT1001-015, Severe (CLcr ≥15-<30 mL/min), N 8
[7] = human, plasma, po, 150 mg, single oral 150 mg migalastat HCl, non-Fabry subjects, renal function group Mild (N = 8)
[8] = human, plasma, po, 150 mg, single oral 150 mg migalastat HCl, non-Fabry subjects, renal function group Moderate (N = 8)
[9] = human, plasma, po, 150 mg, single oral 150 mg migalastat HCl, non-Fabry subjects, renal function group Normal (N = 8)
[10] = human, plasma, po, 150 mg, single oral 150 mg migalastat HCl, non-Fabry subjects, renal function group Severe (N = 8)
[11] = single oral 150 mg migalastat HCl, non-Fabry subjects, renal function group Mild (N = 8)
[12] = single oral 150 mg migalastat HCl, non-Fabry subjects, renal function group Moderate (N = 8)
[13] = single oral 150 mg migalastat HCl, non-Fabry subjects, renal function group Normal (N = 8)
[14] = Fabry patient P1, moderate renal impairment

OC[C@H]1NC[C@H](O)[C@@H](O)[C@H]1O [migalastat, (2R,3S,4R,55)-2-(hydroxymethyl) piperdine-3,4,5-triol]
AUC0-t, Geometric mean [1, 3]: 14374 ng·h/mL
AUC0-∞, Geometric mean (CV %) [1, 3]: 14520 (30.8) hr*ng/mL
C96 h, Mean [1, 3]: BLQ
Frel [1, 3]: 1.2
t1/2, Mean [1, 3]: 7.7 h
tmax, Median (min-max) [1, 3]: 2.5 (1.5-4.0) hr
AUC0-t, Geometric mean [1, 4]: 22122 ng·h/mL
AUC0-∞, Geometric mean (CV %) [1, 4]: 22455 (41.2) hr*ng/mL
Frel [1, 4]: 1.8
AUC0-t, Geometric mean [1, 5]: 12299 ng·h/mL
AUC0-∞, Geometric mean (CV %) [1, 5]: 12389 (24.8) hr*ng/mL
C96 h, Mean [1, 5]: BLQ
t1/2, Mean [1, 5]: 6.4 h
tmax, Median (min-max) [1, 5]: 2.5 (1.5-3.0) hr
AUC0-t, Geometric mean [1, 6]: 53098 ng·h/mL
AUC0-∞, Geometric mean (CV %) [1, 6]: 56174 (24.2) hr*ng/mL
Cmax, Geometric mean (CV %) [1, 6]: 2078 (43.3) ng/mL
Frel [1, 6]: 4.5
AUC0-∞ ([1]; NCA SD Data, single 150 mg migalastat HCl, Moderate (≥30-≤35) group): 36051 and 40653 and 19723
AUC0-∞ ([1]; NCA SD Data, single 150 mg migalastat HCl, Severe (<30) group): 83312 and 54470 and 48890 and 62034 and 59538 and 65916 and 36227 and 49905
concentration at 48 h ([1]; human, plasma, oral, 150 mg, 150 mg dose of migalastat hydrochloride, individuals with normal kidney function, level of quantification, read-out: C48h): < 5 ng/mL
concentration at 48 h ([1]; human, plasma, oral, 150 mg, AT1001-015, Mild (CLcr ≥60-<90 mL/min), N 8, read-out: C48 h, Mean): 9.34 ng/mL
concentration at 96 h ([1]; human, plasma, oral, 150 mg, AT1001-015, Moderate (CLcr ≥30-<60 mL/min), N 8): 16.7 ng/mL
concentration at 48 h ([1]; human, plasma, oral, 150 mg, AT1001-015, Normal (CLcr ≥90 mL/min), N 8, read-out: C48 h, Mean): 5.7 ng/mL
AUC(0-inf) ([1]; human, plasma, oral, 150 mg, NCA SD Data, single 150 mg migalastat HCl, Geometric Mean of the 11 subjects): 47600 ng·h/mL
concentration at 96 h ([1]; human, plasma, oral, 150 mg, AT1001-015, Severe (CLcr ≥15-<30 mL/min), N 8): 105 ng/mL
tmax ([1]; human, plasma, oral, 150 mg, AT1001-015, Severe (CLcr ≥15-<30 mL/min), N 8, read-out: tmax, Median (min-max)): 4 h
AUC(0-inf) [1, 7]: 14500 ng·h/mL
AUC(0-t) [1, 7]: 14400 ng·h/mL
Cmax [1, 7]: 2190 ng/mL
AUC(0-inf) [1, 8]: 22500 ng·h/mL
AUC(0-t) [1, 8]: 22100 ng·h/mL
Cmax [1, 8]: 1870 ng/mL
AUC(0-inf) [1, 9]: 12400 ng·h/mL
AUC(0-t) [1, 9]: 12300 ng·h/mL
Cmax [1, 9]: 2100 ng/mL
AUC(0-inf) [1, 10]: 56200 ng·h/mL
AUC(0-t) [1, 10]: 53100 ng·h/mL
Plasma migalastat C48h levels compared with healthy control subjects ([1]; moderate (predominantly CrCL <50 ml/min) and severe renal impairment): elevated
Comparison to Example 1 Moderate Impairment (migalastat concentration) ([1]; 3 Hrs Post): 1868
Comparison to Example 1 Moderate Impairment (migalastat concentration) ([1]; 24 Hrs Post): 239
Comparison to Example 1 Moderate Impairment (migalastat concentration) ([1]; 48 Hrs Post): 64.5
Comparison to Example 1 Moderate Impairment (migalastat concentration) ([1]; Pre-dose (0 h), same value as 48 h): 64.5
Comparison to Example 1 Severe Impairment (migalastat concentration) ([1]; 2 h): 1549 (59.3%)
Comparison to Example 1 Severe Impairment (migalastat concentration) ([1]; 24 h): 770 (26.5%)
Comparison to Example 1 Severe Impairment (migalastat concentration) ([1]; 48 h): 334 (38.2%)
Cmax compared to healthy control subjects ([1]; single oral 150 mg migalastat HCl, across any of the renal impairment groups): not increased
Incidence of adverse events ([1]; single oral 150 mg migalastat HCl, all renal function groups): comparable across all renal function groups
mean plasma migalastat AUC0-∞ increase compared to healthy control subjects ([1]; single oral 150 mg migalastat HCl, mild renal impairment): 1.2 fold
mean plasma migalastat AUC0-∞ increase compared to healthy control subjects ([1]; single oral 150 mg migalastat HCl, moderate renal impairment): 1.8 fold
CL/F [1, 11]: 10.3 L/h
t1/2 [1, 11]: 7.66 h
tmax [1, 11]: 2.50 h
CL/F [1, 12]: 6.68 L/h
tmax [1, 12]: 3.00 h
CL/F [1, 13]: 12.1 L/h
t1/2 [1, 13]: 6.42 h
tmax [1, 13]: 2.50 h
CL/F ([1]; single oral 150 mg migalastat HCl, non-Fabry subjects, renal function group Severe (N = 8)): 2.67 L/h
tmax compared to healthy control subjects ([1]; single oral 150 mg migalastat HCl, severe group): slightly delayed
mean plasma migalastat AUC0-∞ increase compared to healthy control subjects ([1]; single oral 150 mg migalastat HCl, severe renal impairment): 4.5 fold
increase of C48h concentration over 6 months [2, 14]: 49%
increase of Cmax over 6 months [2, 14]: 33%
concentration at 0 h ([2]; Migalastat Conc 6 months later): 36.4 ng/mL
concentration at 0 h ([2]; Migalastat Conc, first set): 19.9 ng/mL
Lyso-Gb3 (lyso-Gb3; Fabry patient P1, 18 Month Visit): 11.1 nM/L
Lyso-Gb3 (lyso-Gb3; Fabry patient P1, 24 Month Visit): 13.1 nM/L
Lyso-Gb3 (lyso-Gb3; Fabry patient P1, 30 Month Visit): 10.8 nM/L
Lyso-Gb3 (lyso-Gb3; Fabry patient P1, 34-Month Visit): 9.3 nM/L
change of plasma lyso-Gb3 from previous visits (lyso-Gb3; Fabry patient P1, decline in renal function to eGFR of 32 mL/min/1.73 m^2): has not shown clinically relevant changes
Lyso-Gb3 (lyso-Gb3; Fabry patient P3, August 2014, QOD): 13.10 nmol/L
Lyso-Gb3 (lyso-Gb3; Fabry patient P3, August 2017, Q4D): 9.85 nmol/L
Lyso-Gb3 (lyso-Gb3; Fabry patient P3, February 2014, QOD): 11.10 nmol/L
Lyso-Gb3 (lyso-Gb3; Fabry patient P3, February 2015, QOD): 10.80 nmol/L
Lyso-Gb3 (lyso-Gb3; Fabry patient P3, February 2018, Q7D): 7.04 nmol/L
Lyso-Gb3 (lyso-Gb3; Fabry patient P3, January 2018, Q7D): 9.04 nmol/L
Lyso-Gb3 (lyso-Gb3; Fabry patient P3, June 2015, QOD): 9.30 nmol/L
Lyso-Gb3 (lyso-Gb3; Fabry patient P3, March 2011, QOD): 24.15 nmol/L
Lyso-Gb3 (lyso-Gb3; Fabry patient P3, March 2016, QOD): 8.46 nmol/L
Lyso-Gb3 (lyso-Gb3; Fabry patient P3, May 2017, Q4D): 13.10 nmol/L
Lyso-Gb3 (lyso-Gb3; Fabry patient P3, November 2017, Q4D): 8.55 nmol/L
Lyso-Gb3 (lyso-Gb3; Fabry patient P3, September 2010, QOD): 27.30 nmol/L
Lyso-Gb3 (lyso-Gb3; Fabry patient P3, September 2015, QOD): 7.36 nmol/L
